Measurements as given in PubChem BioAssay AID1645865 (Buhrlage Lab, Dana-Farber Cancer Institute and Novartis …, 2021).
Calls of active or inactive are those of the source.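 Rule for the calls: active = maximal inhibition of the USP30 enzyme reaching 30% or more across the dose series; inactive = the rest.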

biological target: Ubiquitin carboxyl-terminal hydrolase 30 (Homo sapiens) (UniProt Q70CQ3); experiment: ubiquitin-specific protease 30 DUB inhibitors, concentration-effect, biochemical, validation of primary actives (AID 1645865); details: purified USP30, Ub-rhodamine cleavage, fluorescence, 2 h
Sequence (Q70CQ3 whole entry, looked up): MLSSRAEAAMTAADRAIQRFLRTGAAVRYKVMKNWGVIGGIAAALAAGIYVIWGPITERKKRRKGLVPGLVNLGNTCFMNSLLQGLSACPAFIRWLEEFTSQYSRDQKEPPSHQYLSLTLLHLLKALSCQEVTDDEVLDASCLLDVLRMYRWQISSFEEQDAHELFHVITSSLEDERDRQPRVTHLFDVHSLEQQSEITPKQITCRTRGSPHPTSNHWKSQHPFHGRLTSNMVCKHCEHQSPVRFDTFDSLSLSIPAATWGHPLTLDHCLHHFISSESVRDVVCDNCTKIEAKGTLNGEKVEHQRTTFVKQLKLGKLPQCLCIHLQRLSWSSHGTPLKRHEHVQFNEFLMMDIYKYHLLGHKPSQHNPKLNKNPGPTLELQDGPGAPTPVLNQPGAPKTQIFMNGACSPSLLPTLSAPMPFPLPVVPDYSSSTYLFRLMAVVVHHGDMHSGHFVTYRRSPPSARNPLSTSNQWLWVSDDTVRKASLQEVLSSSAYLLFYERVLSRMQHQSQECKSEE

Row | Structure (SMILES) | IC50
1 | CCn1cc(-c2nc(-c3ccccc3)no2)c(=O)c2cc(F)ccc21 | 2.18 µM
2 | O=C(Nc1ccc(F)cc1F)NC1CCN(c2ccccc2)C1=O (centres undefined) | 25.8 µM
3 | O=C(NC1CCN(Cc2ccccc2)CC1)c1[nH]nc2c1COc1ccccc1-2 | > 50 µM (inactive)
4 | COc1cccc(CN2CCc3nc4nc(C)ccc4cc3C2)c1 | > 50 µM (inactive)
5 | Cc1cccc2sc(NC(=O)c3nnn(-c4ccc(F)cc4)n3)nc12 | > 50 µM (inactive)
6 | O=C(COc1nc2ccccc2nc1N1CCOCC1)NC(c1ccccc1)c1ccccc1 | > 50 µM (inactive)
7 | O=C(CCCCn1c(=O)c2ccccc2n(Cc2ccccc2F)c1=O)NCCc1ccccc1 | 8.13 µM
8 | Cc1c(C)n(-c2ccc(Br)cn2)c2ncnc(NCCCO)c12 | 25.4 µM
9 | O=C(Nc1ccccc1)c1nc(-c2cn(Cc3ccc(F)cc3)nn2)no1 | 28.6 µM
10 | O=C(NCc1ccc2c(c1)OCO2)c1ccc(C2SCC(=O)N2Cc2ccco2)cc1 (centres undefined) | > 50 µM (inactive)
11 | COc1ccc(NC(=O)CC(=O)c2ccc([N+](=O)[O-])cc2)cc1S(=O)(=O)Nc1ccc(Br)cc1 | 33 µM
12 | O=C(Cc1cccc2ccccc12)Nc1nc2ccc(F)cc2s1 | 45.4 µM
13 | Cc1cccc(NC(=O)c2nn(C)c3ccccc3c2=O)c1 | 24.6 µM
14 | Cc1sc(NC(=O)CN2CCc3ccccc3C2)nc1-c1ccc2c(c1)CCN2C(=O)C1CCCCC1 | > 50 µM (inactive)
15 | Cc1cc(C(=O)CN2CCN(Cc3ccc4c(c3)OCO4)CC2)c(C)n1-c1ccc2c(c1)OCO2 | > 50 µM (inactive)
16 | O=c1[nH]c2ccc(S(=O)(=O)Nc3ccc(O)c4ccccc34)cc2[nH]1 | > 50 µM (inactive)
17 | O=C(COc1ccc(F)cc1)Nc1cc(F)c2nc(N3CCOCC3)ccc2c1 | > 50 µM (inactive)
18 | O=S(=O)(c1cccc(F)c1)N1CCc2nc3ccccc3n2CC1 | 3.76 µM
19 | COc1ccccc1CNC(=O)c1ccc(CSc2nc3ccncc3n2Cc2ccccc2)cc1 | 44.9 µM
20 | CC(C(=O)NCc1ccc(F)cc1)n1cccc1C(=O)c1ccccc1 (centres undefined) | > 50 µM (inactive)
21 | CCOC(=O)c1ccc(NC(=O)Cn2c(=O)n(CC(=O)NCCc3ccc(OC)c(OC)c3)c(=O)c3sccc32)cc1 | 1.57 µM
22 | FC(F)(F)c1cccc(CSc2ccc3nnc(-c4ccccn4)n3n2)c1 | 14.9 µM
23 | Cc1nc(CN2CCn3c(Cn4cccn4)cnc3C2C)cs1 (centres undefined) | > 50 µM (inactive)
24 | CCC[C@H]1O[C@@H]2CC(=O)O[C@@H]2C2=C1C(=O)c1c(O)cccc1C2=O | > 50 µM (inactive)
25 | CCN(CC)C(=O)CN1CCCC(c2ncncc2-c2cc(C)no2)C1 (centres undefined) | > 50 µM (inactive)

Row | Structure (SMILES) | IC50
26 | Cc1cc(C(=O)Nc2cc(C)n(Cc3ccc(Cl)cc3)n2)no1 | > 50 µM (inactive)
27 | CCn1ccc2c(cc(C(=O)Nc3cccc(OC)c3)n2C)c1=O | > 50 µM (inactive)
28 | Cc1cccc(NC(=O)CSc2ncnc3c2sc2nc(CC(C)C)c4c(c23)CCC4)c1 | 19.6 µM
29 | COc1ccccc1NC(=O)Cn1cc(C(=O)c2ccc(C)cc2)c(=O)c2ccccc21 | 22.9 µM
30 | O=C(CCn1c(=O)c2ccccc2n(Cc2cc(=O)n3ccccc3n2)c1=O)NCCc1ccc(Cl)cc1 | 28.5 µM
31 | CC(=O)N1CCCC(c2nc(C)cc(-c3cc(F)ccc3C(=O)O)n2)C1 (centres undefined) | > 50 µM (inactive)
32 | Cc1cc(Nc2ccc(C(=O)NCc3ccco3)cc2)n2nc(-c3cccnc3)nc2n1 | > 50 µM (inactive)
33 | COc1ccc(NC(=O)Nc2cccc(-c3nnc(-c4ccccc4)o3)c2)cc1OC | 8.55 µM
34 | COCCNC(=O)c1cc(-c2cn(-c3ccccn3)c(C)n2)n2ccccc12 | > 50 µM (inactive)
35 | O=C(NCc1cccnc1)c1cnn2c(C(F)(F)F)cc(-c3ccc(F)cc3)nc12 | 23.3 µM
36 | CCN(c1ccc(NC(=O)CSc2nnc(-c3ccccc3)n2-c2ccc(OC)c(OC)c2)cc1)C(C)C | 2.07 µM
37 | CCN(Cc1ccccc1)S(=O)(=O)c1ccc(C(=O)Nc2ccc3c(c2)OCCO3)cc1 | > 50 µM (inactive)
38 | Cc1ccccc1Cn1ccc(NC(=O)c2noc(C)c2[N+](=O)[O-])n1 | > 50 µM (inactive)
39 | CS(=O)(=O)n1nc(NCc2ccc(F)cc2)nc1NCc1ccc(F)cc1 | > 50 µM (inactive)
40 | COc1ccc(C)cc1NC(=O)COc1ccc2c(c1)OCO2 | > 50 µM (inactive)
41 | CCC(=O)OCc1cnc(C)c2oc(=O)c(-c3nc(-c4ccccc4)no3)cc12 | > 50 µM (inactive)
42 | Cc1cccc(C(=O)NCc2nc3ccccc3n2Cc2ccccc2C)c1 | 41.8 µM
43 | COc1ccc(/C=C/C(=O)Nc2c3c(nc4c2CCC4)CCCC3)cc1 | 18.5 µM
44 | O=[N+]([O-])c1ccc(NCc2ccc(-c3cccs3)s2)nc1 | 39.1 µM
45 | Cc1ccc2c(c1)c(=O)c(C(=O)c1ccccc1)cn2CC(=O)Nc1ccc2c(c1)OCCO2 | 2.6 µM
46 | CN(C)c1ccc(/C=N/NC(=O)c2ccc(Cl)cc2)cc1 | 10.7 µM
47 | CC(=O)N1CCc2cc(S(=O)(=O)NC(Cc3ccccc3)C(=O)Nc3cccc(Cl)c3C)ccc21 (centres undefined) | 3.47 µM
48 | Nc1c(C(=O)NCc2ccc3c(c2)OCO3)nnn1Cc1ccc(Br)cc1F | 2.35 µM
49 | CCC(C)(C)C1CCC2(CC1)N=C(N)Nc1nc3ccccc3n12 (centres undefined) | 28.6 µM
